US20080194609A1, “Chemical Compound and Its Use” (Bayer HeathCare AG, priority 2004, published 2008)
Like-named read-outs stand apart in the source and are kept apart here.

How the values were obtained:
[1] = target: T1, CETP in human plasma (Homo sapiens, UniProt P11597); experiment: CETP fluorescence test with human plasma; assay type: biochemical; details: 86% v/v human plasma, 37° C., 24 h
T1 construct: tissue Sigma P9523; host or cells: human plasma (purchased, unfractionated)
T1 sequence (P11597 18-493): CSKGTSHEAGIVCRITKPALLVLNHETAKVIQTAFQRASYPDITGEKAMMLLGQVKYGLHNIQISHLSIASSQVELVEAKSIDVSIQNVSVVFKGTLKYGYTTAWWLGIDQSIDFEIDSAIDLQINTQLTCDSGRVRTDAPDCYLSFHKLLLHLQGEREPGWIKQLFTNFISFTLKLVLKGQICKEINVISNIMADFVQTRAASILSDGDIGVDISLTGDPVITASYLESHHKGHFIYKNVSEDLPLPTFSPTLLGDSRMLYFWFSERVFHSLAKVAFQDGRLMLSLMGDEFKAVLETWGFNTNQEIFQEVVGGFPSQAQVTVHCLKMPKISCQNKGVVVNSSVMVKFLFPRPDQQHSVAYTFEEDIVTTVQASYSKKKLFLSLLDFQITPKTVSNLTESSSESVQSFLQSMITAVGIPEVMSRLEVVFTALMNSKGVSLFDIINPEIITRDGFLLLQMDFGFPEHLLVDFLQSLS
Method: For the production of the donor liposomes, 1 mg of cholesteryl 4,4-difluoro-5,7-dimethyl-4-bora-3a,4a-diaza-s-indacene-3-dodecanoate (cholesteryl BODIPY® FL C1-2, Molecular Probes) is dissolved in 600 μl of dioxane with 5.35 mg of triolein and 6.67 mg of phosphatidylcholine with gentle warming in an ultrasonic bath and this solution is added very slowly with ultrasonication to 63 ml of 50 mM tris/HCl, 150 mM NaCl, 2 mM EDTA buffer pH 7.3 at room temperature. The suspension is then ultrasonicated under an N2 atmosphere for 30 minutes in the Branson ultrasonic bath at about 50 watts, the temperature being kept at about 20° C.
6 μl (12% v/v) of donor liposomes and 1 μl (2% v/v) of a solution of the substance to be investigated in DMSO are added to 42 μl (86% v/v) of human plasma (Sigma P9523), and the mixture is incubated at 37° C. for 24 h.
The change in the fluorescence at 510/520 nm (gap width 2.5 nm) is a measure of the CE transfer; the inhibition of the transfer in comparison to the control batch without substance is determined. […]

[2] = target: T2, CETP (enriched CETP fraction obtained from human plasma) (Homo sapiens, UniProt P11597); experiment: CETP fluorescence test with enriched CETP; assay type: biochemical; details: 37° C., 4 hours, CE transfer between liposomes
T2 construct: CETP is obtained in partially purified form from human plasma; from tissue; host or cells: human plasma (d>1.21 g/ml bottom fraction; Phenyl-Sepharose, CM-Sepharose, Mono Q)
T2 sequence (P11597 18-493): T1 sequence (P11597 18-493)
Method: (§1) CETP is obtained in partially purified form from human plasma by differential centrifugation and column chromatography and used for the test. To this end, human plasma is adjusted to a density of 1.21 g per ml using NaBr and centrifuged at 4° C. at 50 000 rpm for 18 h. The bottom fraction (d>1.21 g/ml) is applied to a Sephadex® Phenyl-Sepharose 4B (Pharmacia) column, washed with 0.15 M NaCl/0.001 M tris-HCl pH 7.4 and then eluted with distilled water. The CETP-active fractions are pooled, dialyzed against 50 mM sodium acetate pH 4.5 and applied to a CM-Sepharose® column (Pharmacia). The mixture is then eluted using a linear gradient (0-1 M NaCl). The pooled CETP fractions are dialyzed against 10 mM tris/HCl pH 7.4 and then further purified by chromatography on a Mono Q® column (Pharmacia).
Measurement of the CETP-catalyzed transfer of a fluorescent cholesterol ester between liposomes [modified according to the procedure of Bisgaier et al., J. Lipid Res. 34, 1625 (1993)]: […]
The change in the fluorescence at 485/535 nm is a measure of the CE transfer; the inhibition of the transfer in comparison to the control batch without substance is determined. […]

[3] = target: T3, CETP (Homo sapiens, UniProt P11597); experiment: CETP-SPA test; assay type: biochemical; design: CETP is obtained in partially purified form from human plasma; from tissue; host or cells: human plasma (d>1.21 g/ml bottom fraction; Phenyl-Sepharose, CM-Sepharose, Mono Q); details: transfer of 3H-cholesterol ester from human HDL to biotinylated LDL, 37° C., 18 h
T3 sequence (P11597 18-493): T1 sequence (P11597 18-493)
Method: as §1
50 ml of fresh human EDTA plasma is adjusted to a density of 1.12 using NaBr and centrifuged at 4° C. in a Ty 65 rotor at 50 000 rpm for 18 h. The upper phase is used for the obtainment of cold LDL. […]
For testing of the CETP activity, the transfer of ^3H-cholesterol ester from human HD lipoproteins to biotinylated LD lipoproteins is measured. The reaction is ended by addition of streptavidin-SPA® beads (Amersham) and the transferred radioactivity is determined directly in a liquid scintillation counter. […]

[4] = target: T3, CETP; experiment: Ex vivo activity on transgenic hCETP mice (CETP activity in the serum); design: from tissue; host or cells: serum of transgenic hCETP mice (host Mus musculus) after oral dosing; details: mouse, 3 mg/kg oral, cholesteryl ester transport
Method: 10 μl of buffer and 2 μl of serum are added to 80 μl of test mix, and the mixture is incubated at 37° C. for 4 h.
The change in the fluorescence at 485/535 nm is a measure for the CE transfer; the inhibition of the transfer in comparison to the control batch without substance is determined.
To test for CETP-inhibitory activity, the substances are administered orally using a stomach tube to transgenic hCETP mice bred in-house [Dinchuk et al. BBA 1295-301 (1995)]. To this end, male animals are randomly assigned to groups having an equal number of animals, as a rule n=4, one day before the start of the experiment. Before administration of the substance, blood is taken from each mouse by puncture of the retro-orbital venous plexus for the determination of its basal CETP activity in the serum (T1). The test substance is then administered to the animals using the stomach tube. […]
After termination of the clotting, the blood samples are centrifuged and the serum is removed by pipette. For the determination of the CETP activity, the cholesteryl ester transport over 4 h is determined. […]
The differences in the cholesteryl ester transport [pM CE/h (T2)−pM CE/h (T1)] are calculated for each animal and averaged in the groups. […]

| Compound | IC50 [1] | IC50 [2] | IC50 [3] | inhibition at 3 mg/kg ([4]; serum taken 16 h after administration, read-out: % inhibition at 3 mg/kg 16 h) | inhibition at 3 mg/kg ([4]; serum taken 24 h after administration, read-out: % inhibition at 3 mg/kg 24 h) |
| --- | --- | --- | --- | --- | --- |
| O[C@H]1CC2(CC2)Cc2nc(C3CCCC3)c([C@@H](F)c3ccc(C(F)(F)F)cc3)c(C3CCCCC3)c21 [Example 1] | 80 nM | 17 nM | 32 nM | 74% | 66% |
| O[C@H]1CC2(CC2)Cc2nc(C3CCCC3)c([C@@H](F)c3ccc(C(F)(F)F)cc3)c(C3CCCC3)c21 [Example 1] | 40 nM | 15 nM | 24 nM | – | – |
